The source of these data is ChEMBL document CHEMBL1144506, “Fujita-Ban QSAR analysis and CoMFA study of quinoline antagonists of immunostimulatory CpG-oligodeoxynucleotides” (Bioorg Med Chem, 2007).

Where “and” joins values, the source holds several entries; their conditions need not be identical. Identical values can stand only once.

The subject of this assay is WEHI. The assay is described as follows: Inhibition of CpG-oligodeoxynucleotides-induced immunostimulation in mouse WEHI 231 cells. The following applies: for EC50: Mus musculus, WEHI. The class given is functional, cell-based.

Regarding `Cc1cccc(-c2cc(NCCCN3CCOCC3)c3ccccc3n2)c1`, the EC50 was 50.1 nM. This lies in the double-digit nanomolar range.

Take `Cc1cccc(-c2cc(NCCN(C)C)c3ccccc3n2)c1`: it took 72.4 nM to reach a half-maximal effect (EC50). `CCN1CCCC1CNc1cc(-c2ccc(C)cc2)nc2ccccc12` (centres undefined) gave an EC50 of 21.9 nM. With `CN1CCN(CCNc2cc(-c3ccc(F)cc3)nc3ccccc23)CC1`, the EC50 is 18.6 nM. The same measure, in the same setting: then `Fc1ccc(-c2cc(NCCCN3CCOCC3)c3ccccc3n2)cc1`, with 67.6 nM; and `Fc1ccc(-c2cc(NCCCCN3CCCC3)c3ccccc3n2)cc1`, with 20.9 nM; and `Fc1ccc(-c2cc(NCCN3CCCC3)c3ccccc3n2)cc1`, with 24 nM. Same read-out and setting: the figure for `Cc1cccc(-c2cc(NCCCN3CCN(C)CC3)c3ccccc3n2)c1` is 27.5 nM; for `CN(C)CCCCNc1cc(-c2ccc(N3CCCCC3)cc2)nc2ccccc12` it is 46.8 nM. As for `COc1ccc(-c2cc(NCCN(C)C)c3ccccc3n2)cc1F`, the EC50 is 35.5 nM. This EC50 and that of the molecule before are within 1.5-fold of each other. Same read-out and setting: then `Cc1ccc(-c2cc(NCCCN3CCCC3)c3ccccc3n2)cc1`, with 105 nM; and `Cc1ccc(-c2cc(Nc3ccc(O)cc3)c3ccccc3n2)cc1`, with 151 nM. The same measure, in the same setting: the figure for `CN(C)CCNc1cc(-c2ccccc2Cl)nc2ccccc12` is 162 nM; for `CN(C)CCNc1cc(-c2ccccc2N2CCN(C)CC2)nc2ccccc12` it is 38.9 nM; for `CN(C)CCCNc1cc(-c2ccccc2F)nc2ccccc12` it is 107 nM. The same measure, in the same setting: the figure for `CN(C)CCCNc1cc(-c2cccc(CNCCCN3CCOCC3)c2)nc2ccccc12` is 52.5 nM; for `CN(C)CCCNc1cc(-c2cccc(CNCCN3CCOCC3)c2)nc2ccccc12` it is 20.4 nM. `CN(C)CCNc1cc(-c2ccc(F)cc2)nc2ccc(Cl)cc12` had an EC50 of 52.5 nM. Still for that read-out and setting: the figure for `CCN(CC)CCNc1cc(-c2cccc(C)c2)nc2ccccc12` is 22.4 nM; for `CN1CCN(Cc2cccc(-c3cc(N4CCN(C)CC4)c4ccccc4n3)c2)CC1` it is 100 nM; for `CCN(CC)CCNc1cc(-c2ccc(C)cc2)nc2ccccc12` it is 18.6 nM.

`Cc1ccc(-c2cc(NCCCN3CCOCC3)c3ccccc3n2)cc1` showed an EC50 of 26.9 nM.

Molecule `CCN1CCCC1CNc1cc(-c2cccc(C)c2)nc2ccccc12` (centres undefined) showed an EC50 of 21.9 nM. With `CN(C)CCNc1cc(-c2ccc(F)cc2)nc2ccccc12`, the midpoint of the response, the EC50, lay at 51.3 nM. As to `CN(C)CCCCNc1cc(-c2ccccc2F)nc2ccccc12`, a half-maximal effect (EC50) was put at 107 nM. `CN1CCN(c2ccccc2-c2cc(N3CCN(C)CC3)c3ccccc3n2)CC1` had a concentration giving a half-maximal response (EC50) of 132 nM. `CN(C)CCCCCCNc1cc(-c2ccc(F)cc2)nc2ccccc12` gave a half-maximal effective concentration (EC50) of 20.4 nM. Consider `CN1CCN(Cc2ccc(-c3cc(N4CCN(C)CC4)c4ccccc4n3)cc2)CC1`, for which the EC50 was 58.9 nM. Against the preceding molecule, the EC50 is about 2.9-fold higher. Regarding `COc1ccc(C2C=C(NCCN(C)C)c3cc(F)ccc3N2)c(F)c1` (centres undefined), the concentration giving a half-maximal response (EC50) is 141 nM. This EC50 is about 2.4-fold higher than that of the molecule before. `COc1ccc(-c2cc(NCCN(C)C)c3cc(F)ccc3n2)cc1F` showed a concentration for a half-maximal effect (EC50) of 79.4 nM. On to `CN(C)CCCCNc1cc(-c2ccc(F)cc2)nc2ccccc12`, for which the “Log EC50” value (wehi) is -8.26 and -7.76. In the case of `CN1CCN(Cc2cccc(-c3cc(NCCCN4CCCC4)c4ccccc4n3)c2)CC1`, the EC50 was 120 nM. Turning to `CN(C)CCCNCc1cccc(-c2cc(NCCN3CCOCC3)c3ccccc3n2)c1`, the EC50 was 155 nM.

For the molecule `CN(C)CCNc1cc(-c2ccc(C(F)(F)F)cc2)nc2ccccc12`, the EC50 was 155 nM. This lies in the sub-micromolar range.

By EC50 is commonly meant the concentration that produces a half-maximal response. A low value points to higher potency in that assay.
